Test results: patent publication US20230102554A1 (GB002, INC., priority 2019, published 2023)

Legend:
[1] = biological target: T1, Human PDGFRα, cytoplasmic domain (GST-PDGFRα) (Homo sapiens, UniProt P16234); assay: Human PDGFRα biochemical inhibition assay (off-chip Mobility Shift Assay)
T1 construct: made in house

[2] = biological target: T2, Human PDGFRβ, cytoplasmic domain (GST-PDGFRβ) (Homo sapiens, UniProt P09619); assay: Human PDGFRβ biochemical inhibition assay (off-chip Mobility Shift Assay)
T2 construct: made in house
How it was run: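 GST-tagged cytoplasmic domain (aa 557-1106) from baculovirus was incubated 1 h at room temperature with compound, CSKtide, ATP at Km and Mg²⁺ in HEPES buffer, pH 7.5. Phosphorylated and unphosphorylated peptide were separated by off-chip mobility shift, and the product ratio P/(P+S) gave percent inhibition.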

T1 sequence (P16234 550-1089 T674I): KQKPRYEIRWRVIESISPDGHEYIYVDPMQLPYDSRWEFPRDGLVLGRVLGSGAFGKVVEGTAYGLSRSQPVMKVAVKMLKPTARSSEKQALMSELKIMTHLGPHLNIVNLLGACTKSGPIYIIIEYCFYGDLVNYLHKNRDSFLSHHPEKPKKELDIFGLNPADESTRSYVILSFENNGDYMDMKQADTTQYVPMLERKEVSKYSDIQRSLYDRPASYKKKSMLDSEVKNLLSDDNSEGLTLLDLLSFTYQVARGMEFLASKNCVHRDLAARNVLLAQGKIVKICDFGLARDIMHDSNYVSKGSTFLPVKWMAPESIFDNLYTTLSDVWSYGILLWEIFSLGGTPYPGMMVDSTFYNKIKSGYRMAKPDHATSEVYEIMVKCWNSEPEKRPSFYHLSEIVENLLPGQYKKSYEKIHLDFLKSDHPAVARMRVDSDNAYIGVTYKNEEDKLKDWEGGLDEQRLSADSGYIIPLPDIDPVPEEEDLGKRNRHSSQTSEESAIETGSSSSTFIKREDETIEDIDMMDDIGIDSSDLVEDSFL
T2 sequence (P09619 with tags, fused parts or gaps): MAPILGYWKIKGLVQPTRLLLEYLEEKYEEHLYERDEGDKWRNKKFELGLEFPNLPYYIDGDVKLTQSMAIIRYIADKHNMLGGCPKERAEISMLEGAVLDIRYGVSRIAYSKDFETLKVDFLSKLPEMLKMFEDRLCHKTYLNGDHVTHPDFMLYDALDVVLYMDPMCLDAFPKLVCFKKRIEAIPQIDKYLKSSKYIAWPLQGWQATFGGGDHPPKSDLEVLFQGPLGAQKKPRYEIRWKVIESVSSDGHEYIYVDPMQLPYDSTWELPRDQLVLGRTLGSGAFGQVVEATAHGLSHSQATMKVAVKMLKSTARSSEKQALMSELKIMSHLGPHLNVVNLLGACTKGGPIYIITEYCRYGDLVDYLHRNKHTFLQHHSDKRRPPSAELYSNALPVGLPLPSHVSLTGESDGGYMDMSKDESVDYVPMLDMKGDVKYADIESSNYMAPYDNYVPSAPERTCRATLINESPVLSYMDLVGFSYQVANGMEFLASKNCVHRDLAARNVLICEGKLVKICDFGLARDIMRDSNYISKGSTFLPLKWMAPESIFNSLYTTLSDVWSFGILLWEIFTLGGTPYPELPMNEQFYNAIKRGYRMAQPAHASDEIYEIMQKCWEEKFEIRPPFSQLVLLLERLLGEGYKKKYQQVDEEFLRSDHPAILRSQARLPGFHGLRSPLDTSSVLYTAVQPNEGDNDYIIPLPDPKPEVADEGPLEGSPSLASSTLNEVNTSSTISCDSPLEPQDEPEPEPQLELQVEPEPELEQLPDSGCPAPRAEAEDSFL

SMILES	IC50 [1] [nM]	IC50 [2] [nM]
Cc1cc(C(=O)Nc2cccc([C@H](C)Nc3cnc4cnn(C)c4n3)c2)cnc1C(F)(F)F [Compound 125, (S)-5-methyl-N-(3-(1-((1-methyl-1H-pyrazolo[3,4-b]pyrazin-6-yl)amino)ethyl)phenyl)-6-(trifluoromethyl) nicotinamide]	< 300	< 300
COC(=O)c1ccc(C(=O)Nc2cccc([C@H](C)Nc3cnc4cnn(C)c4n3)c2)cc1C [Compound 199, methyl (S)-2-methyl-4-((3-(1-((1-methyl-1H-pyrazolo[3,4-b]pyrazin-6-yl)amino)ethyl)phenyl)carbamoyl)benzoate]	< 300	< 300
CCn1cc2ncc(N[C@@H](C)c3cc(NC(=O)c4ccc(C5CC5)nc4)ccc3F)nc2n1 [Compound 302, (S)-6-cyclopropyl-N-(3-(1-((2-ethyl-2H-pyrazolo[3,4-b]pyrazin-6-yl)amino)ethyl)-4-fluorophenyl)nicotinamide]	< 300	< 300
CC(C)c1cc(C(=O)Nc2cccc([C@H](C)Nc3cnc4cnn(C)c4n3)c2)nn1C [Compound 162, (S)-5-isopropyl-1-methyl-N-(3-(1-((1-methyl-1H-pyrazolo[3,4-b]pyrazin-6-yl)amino)ethyl)phenyl)-1H-pyrazole-3-carboxamide]	< 300	< 300
CCn1cc2ncc(N[C@@H](C)c3cc(NC(=O)c4cc(F)c(CN5CCOCC5)c(Cl)c4)ccc3C)nc2n1 [Compound 520, (S)-3-chloro-N-(3-(1-((2-ethyl-2H-pyrazolo[3,4-b]pyrazin-6-yl)amino)ethyl)-4-methylphenyl)-5-fluoro-4-(morpholinomethyl) benzamide]	< 300	< 300
CC(=O)Oc1cccc(C(=O)Nc2cccc([C@H](C)Nc3cnc4cnn(C)c4n3)c2)c1 [Compound 215, (S)-3-((3-(1-((1-methyl-1H-pyrazolo[3,4-b]pyrazin-6-yl)amino)ethyl)phenyl)carbamoyl) phenyl acetate]	< 300	< 300
Cc1cncc(C(=O)Nc2cccc([C@H](C)Nc3cnc4ccc(-c5cnn(C)c5)cc4n3)c2)c1 [Compound 42, (S)-5-methyl-N-(3-(1-((7-(1-methyl-1H-pyrazol-4-yl)quinoxalin-2-yl)amino)ethyl)phenyl)nicotinamide]	< 300	< 300
CCn1cc2ncc(N[C@@H](C)c3cc(NC(=O)c4cnc(OCC5CC5)c(C)c4)ccc3F)nc2n1 [Compound 318, (S)-6-(cyclopropylmethoxy)-N-(3-(1-((2-ethyl-2H-pyrazolo[3,4-b]pyrazin-6-yl)amino)ethyl)-4-fluorophenyl)-5-methylnicotinamide]	< 300	< 300
CCn1cc2ncc(N[C@@H](C)c3cc(NC(=O)Cc4ccc(F)c(C)n4)ccc3C)nc2n1 [Compound 675, (S)-N-(3-(1-((2-ethyl-2H-pyrazolo[3,4-b]pyrazin-6-yl)amino)ethyl)-4-methylphenyl)-2-(5-fluoro-6-methylpyridin-2-yl)acetamide]	< 300	< 300
CCn1cc2ncc(N[C@@H](C)c3cccc(NC(=O)c4cncc(Cl)c4)c3)nc2n1 [Compound 281, (S)-5-chloro-N-(3-(1-((2-ethyl-2H-pyrazolo[3,4-b]pyrazin-6-yl)amino)ethyl)phenyl) nicotinamide]	< 300	300 to 1000
C[C@H](Nc1cnc2cnn(C)c2n1)c1cccc(NC(=O)c2ccc(OC(F)(F)F)nc2)c1 [Compound 119, (S)-N-(3-(1-((1-methyl-1H-pyrazolo[3,4-b]pyrazin-6-yl)amino)ethyl)phenyl)-6-(trifluoromethoxy)nicotinamide]	< 300	< 300
CCc1ccc(C(=O)Nc2cccc([C@H](C)Nc3cnc4cnn(C)c4n3)c2)cn1 [Compound 207, (S)-6-ethyl-N-(3-(1-((1-methyl-1H-pyrazolo[3,4-b]pyrazin-6-yl)amino)ethyl)phenyl) nicotinamide]	< 300	< 300
CCn1cc2ncc(N[C@@H](C)c3cccc(NC(=O)c4ccc(C(F)(F)F)c(C)c4)c3)nc2n1 [Compound 439, (S)-N-(3-(1-((2-ethyl-2H-pyrazolo[3,4-b]pyrazin-6-yl)amino)ethyl)phenyl)-3-methyl-4-(trifluoromethyl)benzamide]	< 300	< 300

Next, values leading:

IC50 [1] [nM]	IC50 [2] [nM]	SMILES
< 300	< 300	CCn1cc2ncc(N[C@@H](C)c3cccc(NC(=O)Cc4ccc(F)cc4)c3)nc2n1 [Compound 638, (S)-N-(3-(1-((2-ethyl-2H-pyrazolo[3,4-b]pyrazin-6-yl)amino)ethyl)phenyl)-2-(4-fluorophenyl)acetamide]
< 300	< 300	CCn1cc2ncc(N[C@@H](C)c3cc(NC(=O)c4cnc(C5CC5)c(C)c4)ccc3F)nc2n1 [Compound 322, (S)-6-cyclopropyl-N-(3-(1-((2-ethyl-2H-pyrazolo[3,4-b]pyrazin-6-yl)amino)ethyl)-4-fluorophenyl)-5-methylnicotinamide]
300 to 1000	≥ 1000	CCn1cc2ncc(N[C@@H](C)c3cccc(NC(=O)c4ccc(N5CCNCC5)nc4)c3)nc2n1 [Compound 397, (S)-N-(3-(1-((2-ethyl-2H-pyrazolo[3,4-b]pyrazin-6-yl)amino)ethyl)phenyl)-6-(piperazin-1-yl)nicotinamide]
< 300	≥ 1000	CCn1cc2ncc(N[C@@H](C)c3cccc(NC(=O)Cc4ccc(C)c(C)n4)c3)nc2n1 [Compound 716, (S)-2-(5,6-dimethylpyridin-2-yl)-N-(3-(1-((2-ethyl-2H-pyrazolo[3,4-b]pyrazin-6-yl)amino)ethyl)phenyl)acetamide]
< 300	≥ 1000	Cc1cncc(C(=O)Nc2cccc([C@H](C)Nc3cnc4cccnc4c3)c2)c1 [Compound 3, (S)—N-(3-(1-((1,5-naphthyridin-3-yl)amino)ethyl)phenyl)-5-methylnicotinamide]
< 300	300 to 1000	CCn1cc2ncc(N[C@@H](C)c3cccc(NC(=O)Cc4ccc(Cl)c(F)c4)c3)nc2n1 [Compound 627, (S)-2-(4-chloro-3-fluorophenyl)-N-(3-(1-((2-ethyl-2H-pyrazolo[3,4-b]pyrazin-6-yl)amino)ethyl)phenyl)acetamide]
< 300	300 to 1000	CCn1cc2ncc(N[C@@H](C)c3cccc(NC(=O)Cc4ccccc4)c3)nc2n1 [Compound 633, (S)-N-(3-(1-((2-ethyl-2H-pyrazolo[3,4-b]pyrazin-6-yl)amino)ethyl)phenyl)-2-phenylacetamide]
< 300	< 300	C[C@H](Nc1cnc2cnn(C)c2n1)c1cccc(NC(=O)c2cc(C(C)(C)C)on2)c1 [Compound 143, (S)-5-(tert-butyl)-N-(3-(1-((1-methyl-1H-pyrazolo[3,4-b]pyrazin-6-yl)amino)ethyl)phenyl)isoxazole-3-carboxamide]
< 300	< 300	CCc1ncc(C(=O)Nc2cccc([C@H](C)Nc3cnc4cnn(C)c4n3)c2)cc1C [Compound 233, (S)-6-ethyl-5-methyl-N-(3-(1-((1-methyl-1H-pyrazolo[3,4-b]pyrazin-6-yl)amino)ethyl)phenyl)nicotinamide]
300 to 1000	≥ 1000	CCn1cc2ncc(N[C@@H](C)c3cccc(NC(=O)Cc4ccc(C(C)C)cn4)c3)nc2n1 [Compound 709, (S)-N-(3-(1-((2-ethyl-2H-pyrazolo[3,4-b]pyrazin-6-yl)amino)ethyl)phenyl)-2-(5-isopropylpyridin-2-yl)acetamide]
< 300	< 300	CCn1cc2ncc(N[C@@H](C)c3cc(NC(=O)Cc4ccccc4)ccc3F)nc2n1 [Compound 637, (S)-N-(3-(1-((2-ethyl-2H-pyrazolo[3,4-b]pyrazin-6-yl)amino)ethyl)-4-fluorophenyl)-2-phenylacetamide]
< 300	< 300	CCn1cc2ncc(N[C@@H](C)c3cccc(NC(=O)c4ccc(N5CCOCC5)c(F)c4)c3)nc2n1 [Compound 366, (S)-N-(3-(1-((2-ethyl-2H-pyrazolo[3,4-b]pyrazin-6-yl)amino)ethyl)phenyl)-3-fluoro-4-morpholinobenzamide]
< 300	≥ 1000	CCn1cc2ncc(N[C@@H](C)c3cccc(NC(=O)Cc4ccc(C(F)(F)F)cn4)c3)nc2n1 [Compound 688, (S)-N-(3-(1-((2-ethyl-2H-pyrazolo[3,4-b]pyrazin-6-yl)amino)ethyl)phenyl)-2-(5-(trifluoromethyl)pyridin-2-yl) acetamide]
< 300	300 to 1000	Cc1cncc(C(=O)Nc2cccc([C@H](C)Nc3cnc4cccnc4n3)c2)c1 [Compound 5, (S)-5-methyl-N-(3-(1-(pyrido[2,3-b]pyrazin-3-ylamino)ethyl)phenyl) nicotinamide]
< 300	300 to 1000	Cc1cncc(C(=O)Nc2cccc([C@H](C)Nc3cncc4c3ccn4-c3cnn(C)c3)c2)c1 [Compound 748, (S)-5-methyl-N-(3-(1-((1-(1-methyl-1H-pyrazol-4-yl)-1H-pyrrolo[2,3-c]pyridin-4-yl)amino)ethyl)phenyl) nicotinamide]
< 300	≥ 1000	CCn1cc2ncc(N[C@@H](C)c3cc(NC(=O)Cc4ccc(C(F)(F)F)cn4)ccc3F)nc2n1 [Compound 654, (S)-N-(3-(1-((2-ethyl-2H-pyrazolo[3,4-b]pyrazin-6-yl)amino)ethyl)-4-fluorophenyl)-2-(5-(trifluoromethyl)pyridin-2-yl) acetamide]
< 300	< 300	Cc1cncc(C(=O)Nc2cccc([C@H](C)Nc3cnc4[nH]nc(-c5cnn(C)c5)c4n3)c2)c1 [Compound 551, (S)-5-methyl-N-(3-(1-((3-(1-methyl-1H-pyrazol-4-yl)-1H-pyrazolo[3,4-b]pyrazin-5-yl)amino)ethyl)phenyl) nicotinamide]
